In ChEMBL document CHEMBL1150744, “Antifungal activity of Trillium grandiflorum constituents” (J Nat Prod, 1988):
≈ marks a conversion by molar mass, not a printed value.

Key:
Candida albicans [1] = test: Antifungal activity against Candida albicans WH-D by twofold serial broth dilution assay; format: functional
Candida albicans [2] = test: Antifungal activity against Candida albicans NIH B311 after 24 hrs by […]; format: functional; details: NIH B311, 24 h
Candida albicans [3] = test: Antifungal activity against Candida albicans NIH B311 infected in ICR mouse assessed as reduction in number of recovered colony forming units at 0.5 mg/kg, ip administered after 7 hrs inoculation measured after 16 hrs; format: functional; design: scale not given: the % may be the effect or the level left; details: route intraperitoneal
Cryptococcus neoformans = test: Antifungal activity against Cryptococcus neoformans ATCC 32264 by twofold serial broth dilution assay; format: functional
Candida albicans [4] = test: Antifungal activity against Candida albicans ATCC 10231 by twofold serial broth dilution assay; format: functional
Aspergillus fumigatus = test: Antifungal activity against Aspergillus fumigatus ATCC 26934 by twofold serial broth dilution assay; format: functional
[5] = Toxicity in iv dosed ICR mouse assessed as morbidity and lethality after 14 days; format: organism-based; details: in vivo
Saccharomyces cerevisiae = test: Antifungal activity against Saccharomyces cerevisiae ATCC 9763 by twofold serial broth dilution assay; format: functional
[6] = test system: Trichophyton mentagrophytes; test: Antifungal activity against Trichophyton mentagrophytes ATCC 9972 by twofold serial broth dilution assay; format: functional
Aspergillus flavus = test: Antifungal activity against Aspergillus flavus ATCC 9170 by twofold serial broth dilution assay; format: functional
[7] = Toxicity in ip dosed ICR mouse assessed as morbidity and lethality after 14 days; format: organism-based; details: in vivo

| SMILES | MIC (Candida albicans [1]) [µg/mL] | MIC (Candida albicans [2]) [µg/mL] | Activity (Candida albicans [3]) [%] | MIC (Cryptococcus neoformans) [µg/mL] | MIC (Candida albicans [4]) [µg/mL] | MIC (Aspergillus fumigatus) [µg/mL] | LD50 at 336 h [5] [mg/kg] | MIC (Saccharomyces cerevisiae) [µg/mL] | MIC [6] [µg/mL] | MIC (Aspergillus flavus) [µg/mL] | LD50 at 336 h [7] [mg/kg] |
| --- | --- | --- | --- | --- | --- | --- | --- | --- | --- | --- | --- |
| C[C@@H]1[C@H](O)[C@@H](C)/C=C/C=C/C=C/C=C/C=C/C=C/C=C/[C@H](O[C@@H]2O[C@H](C)[C@@H](O)[C@H](N)[C@@H]2O)C[C@@H]2O[C@](O)(C[C@@H](O)C[C@@H](O)[C@H](O)CC[C@@H](O)C[C@@H](O)CC(=O)O[C@H]1C)C[C@H](O)[C@H]2C(=O)O [AMPHOTERICIN B] | 0.78 (≈ 0.844 µM) | 0.39 (≈ 0.422 µM) | 97.5 | 1.56 (≈ 1.69 µM) | 1.56 (≈ 1.69 µM) | 100 (≈ 108 µM) | 1 | 25 (≈ 27.1 µM) | 50 (≈ 54.1 µM) | 50 (≈ 54.1 µM) |  |
| C[C@@H]1CC[C@@]2(OC1)O[C@H]1C[C@H]3[C@@H]4CC=C5C[C@@H](O[C@@H]6O[C@H](CO)[C@@H](O[C@@H]7O[C@@H](C)[C@H](O)[C@@H](O)[C@H]7O)[C@H](O)[C@H]6O[C@@H]6O[C@@H](C)[C@H](O)[C@@H](O)[C@H]6O)CC[C@]5(C)[C@H]4CC[C@]3(C)[C@H]1[C@@H]2C [DIOSCIN] | 6.25 (≈ 7.19 µM) | 1.56 (≈ 1.8 µM) |  | 25 (≈ 28.8 µM) | 3.12 (≈ 3.59 µM) | 50 (≈ 57.5 µM) | 10 | 25 (≈ 28.8 µM) | 6.25 (≈ 7.19 µM) | 100 (≈ 115 µM) | 38 |
| C[C@@H]1CC[C@@]2(OC1)O[C@H]1C[C@H]3[C@@H]4CC=C5C[C@@H](O[C@@H]6O[C@H](CO)[C@@H](O[C@@H]7O[C@@H](C)[C@H](O[C@@H]8O[C@@H](C)[C@H](O)[C@@H](O)[C@H]8O)[C@@H](O)[C@H]7O)[C@H](O)[C@H]6O[C@@H]6O[C@@H](C)[C@H](O)[C@@H](O)[C@H]6O)CC[C@]5(C)[C@H]4CC[C@]3(C)[C@H]1[C@@H]2C [PENNOGENIN RAHAMNOSYL CHACOTRIOSIDE] | 12.5 (≈ 12.3 µM) | 6.25 (≈ 6.16 µM) |  | 12.5 (≈ 12.3 µM) | 12.5 (≈ 12.3 µM) | 100 (≈ 98.5 µM) | 5 | 12.5 (≈ 12.3 µM) | 3.12 (≈ 3.07 µM) | 100 (≈ 98.5 µM) | 28 |
